Experimental data: BindingDB's records for doi:10.1016/j.bmcl.2005.08.057 (Novartis Institutes For Biomedical Research, 2005)

Key:
[1] = target: C-C chemokine receptor type 1 (Rattus norvegicus); experiment: Antagonistic activity at rat CCR1 in CHO-K1 cells
[2] = Inhibitory effect on transwell chemotaxis induced by 1 nM MIP-1alpha in mouse pre-B cells transfected with human CCR1

IC50 [1] | IC50 [2] | Compound
6 nM |  | CC(=O)Nc1cc2ncccc2cc1/C=C/C(=O)N1C2CCC1CN(Cc1ccc(F)cc1)C2 [N-(6-(3-(3-(4-fluorobenzyl)-3,8-diaza-bicyclo[3.2.1]octan-8-yl)-3-oxoprop-1-enyl)quinolin-7-yl)acetamide]
1500 nM |  | CC(=O)Nc1cc2ccccc2cc1/C=C/C(=O)N1CCN(Cc2ccc(F)cc2)C[C@H]1C [(R)-N-(3-(3-(4-(4-fluorobenzyl)-2-methylpiperazin-1-yl)-3-oxoprop-1-enyl)naphthalen-2-yl)acetamide]
300 nM |  | CC(=O)Nc1cc2ncccc2cc1/C=C/C(=O)N1CCN(Cc2ccc(F)cc2)C[C@H]1C [(R)-N-(6-(3-(4-(4-fluorobenzyl)-2-methylpiperazin-1-yl)-3-oxoprop-1-enyl)quinolin-7-yl)acetamide]
1 nM | 7.5 nM | COc1cc(/C=C/C(=O)N2C3CCC2CN(Cc2ccc(F)cc2)C3)c(NC(C)=O)cc1Cl [N-(2-(3-(3-(4-fluorobenzyl)-3,8-diaza-bicyclo[3.2.1]octan-8-yl)-3-oxoprop-1-enyl)-5-chloro-4-methoxyphenyl)acetamide]

Compound | IC50 [1] | IC50 [2]
CN(C)CC(=O)Nc1cc(Cl)ccc1/C=C/C(=O)N1C2CCC1CN(Cc1ccc(F)cc1)C2 [N-(2-(3-(3-(4-fluorobenzyl)-3,8-diaza-bicyclo[3.2.1]octan-8-yl)-3-oxoprop-1-enyl)-5-chlorophenyl)-2-(dimethylamino)acetamide] | 10 nM | 
